{
  "source": "patent US20070078177A1",
  "about": "“METHODS AND COMPOSITIONS FOR TREATING NON AGE RELATED HEARING IMPAIRMENT IN A SUBJECT” (WASHINGTON UNIVERSITY IN ST. LOUIS, priority 2005, published 2007)",
  "key": {"[1]": {"tested_on": "outer hair cells (OHCs), inner hair cells (IHCs), and spiral ganglion neurons (SGNs)", "assay": "Cochlear histology after noise exposure: counting of IHCs, OHCs and SGNs, cytocochleograms", "assay_type": "in vivo, C57BL/6J mice", "conditions": "for number (density) of SGNs, control vs drug-treated mice: apex, middle and base regions, male mice at 3 months, drug after noise, FIG. 6B (trimethadione), FIG. 7 (ethosuximide); for gross morphological changes in mid-modiolar sections, control vs drug-treated mice: drug after noise exposure", "text": "The methods for fixing, processing and analyzing the mouse cochlea have been described in detail elsewhere (Ohlemiller et al., 2000; Ou et al., 2000). Briefly, mice were perfused transcardially with cold 2% paraformaldehyde and 2% glutaraldehyde in 0.1 M phosphate buffer. Both cochleae were isolated, the stapes removed, and immersed in the same fixative. Complete exposure of the cochlea to the fixative was ensured by making a small hole at the apex of the cochlear capsule, gently circulating the fixative over the cochlea using a transfer pipet. After decalcification in sodium EDTA, the cochleae were post-fixed in buffered 1% osmium tetroxide, dehydrated in an ascending acetone series, and embedded in Epon. For SGN counting, mid-modiolar sections (4 μm) were cut and about fifty sections were collected for each cochlea. The number of SGN nuclei at the apex, middle, and base was counted every fifth section (total 10 sections per one cochlea) under a 200× visual field using a computerized planimetry program of Image Pro Plus (Media Cybernetics). Because all sections were cut in a similar orientation, it was possible to evaluate comparisons between two groups by Mann-Whitney tests. For hair cell counting, cochleae were dissected into roughly half-turn segments. These half-turn segments were examined in mineral oil under Nomarski optics, using a calibrated ocular. Three separate inner hair cell (IHC) and outer hair cell (OHC) counts were obtained from non-overlapping 100 μm segments. Cytocochleogrames were prepared for one pair of mice with the best prophylactic function of trimethadione. The percentages of missing IHCs and OHCs were determined by dividing the number of missing hair cells by the total number of hair cells (i.e. present plus absent) in the organ of Corti."}, "[2]": {"tested_on": "noise-induced hearing loss (NIHL)", "assay": "Therapeutic function on noise-induced hearing loss: ABR thresholds, drug in drinking water right after noise exposure"}, "[3]": {"conditions": "stated as reason for selecting TMO; cited from earlier work"}, "[4]": {"tested_on": "noise-induced hearing loss (NIHL)", "assay": "Prophylactic function on noise-induced hearing loss: ABR thresholds, drug in drinking water before noise exposure", "conditions": "for ABR threshold shift prevented, PTS: Drug-Noise-2w; for ABR threshold shift prevented, PTS / ABR threshold shift prevented, TTS: P<0.01; for ABR threshold shift prevented, TTS: Drug-Noise-24h"}, "[5]": {"conditions": "both male and female mice, 3 months old, drug in drinking water two weeks before noise, one-way ANOVA p<0.05, FIG. 5"}, "[6]": {"conditions": "female mice, across five tested frequencies, FIG. 5B"}, "[7]": {"conditions": "male mice, five tested frequencies from 5 to 40K, FIG. 5A"}},
  "note": "“Also recorded” adds a separate entry of the source.",
  "data": [
    {"smiles": "CCC1(C)CC(=O)NC1=O", "note": "(stereo not drawn) [ethosuximide]", "values": [
      {"measurement": "number (density) of SGNs, control vs drug-treated mice", "setting": "[1]", "result": "no difference; also recorded: not significantly different"},
      {"measurement": "gross morphological changes in mid-modiolar sections, control vs drug-treated mice", "setting": "[1]", "result": "No obvious gross morphological changes"},
      {"measurement": "temporary threshold shift (TTS) vs control", "setting": "[2]; 24 hours after noise (wideband, 110 dB, 30 min), ethosuximide 400 mg/kg/day in drinking water starting immediately after noise, FIG. 2B", "result": "significantly lower"},
      {"measurement": "permanent threshold shift (PTS) vs control", "setting": "[2]; 21 days after noise, ethosuximide 400 mg/kg/day in drinking water for three weeks starting immediately after noise, FIG. 2C", "result": "significantly lower"},
      {"measurement": "ABR threshold before the noise exposure vs control", "setting": "[2]; ethosuximide group vs control, n=5, 2 month-old mice, FIG. 2A", "result": "no difference"},
      {"measurement": "ABR threshold shift, PTS, vs control", "setting": "[2]; male mice (n=5), 3 months old, ethosuximide in drinking water right after noise, P<0.01, FIG. 4", "result": "less ABR threshold shift; also recorded: significant protection"},
      {"measurement": "ABR threshold shift, TTS, vs control", "setting": "[2]; male mice (n=5), 3 months old, ethosuximide in drinking water right after noise, P<0.05, FIG. 4", "result": "less ABR threshold shift; also recorded: significant protection"}
    ]},
    {"smiles": "CN1C(=O)OC(C)(C)C1=O", "note": "[trimethadione]", "values": [
      {"measurement": "loss of IHCs", "setting": "[1]; apex region (0 to 8 kHz), single treated mouse of the pair, control 0.3%", "result": "~1.9", "unit": "%"},
      {"measurement": "loss of OHCs", "setting": "[1]; apex region (0 to 8 kHz), single treated mouse of the pair, control 4.6%", "result": "~3.5", "unit": "%"},
      {"measurement": "number (density) of SGNs, control vs drug-treated mice", "setting": "[1]", "result": "no difference; also recorded: not significantly different"},
      {"measurement": "missing IHCs", "setting": "[1]; base region (32 kHz to 64 kHz), single treated mouse of the pair, control 22.2%, FIG. 8", "result": "about 1.8%"},
      {"measurement": "missing OHCs", "setting": "[1]; base region (32 kHz to 64 kHz), single treated mouse of the pair, control 74.4%, FIG. 8", "result": "~68.8", "unit": "%"},
      {"measurement": "gross morphological changes in mid-modiolar sections, control vs drug-treated mice", "setting": "[1]", "result": "No obvious gross morphological changes"},
      {"measurement": "morphological differences among groups", "setting": "[1]; groups testing the prophylactic function", "result": "no obvious morphological differences"},
      {"measurement": "IHC numbers, control vs drug-treated mice", "setting": "[1]; hook, low base, upper base and apex of cochlea, 3-months-old male mice (n=3), FIG. 6A", "result": "no significant difference"},
      {"measurement": "OHC numbers, control vs drug-treated mice", "setting": "[1]; hook, low base, upper base and apex of cochlea, 3-months-old male mice (n=3), Noise-Only-2w vs Noise-Drug-2w, FIG. 6A", "result": "trend for the loss of more outer hair cells; also recorded: no significant difference"},
      {"measurement": "water solubility", "setting": "[3]", "result": "water soluble"},
      {"measurement": "temporary threshold shift (TTS) vs control", "setting": "[4]; 24 hours after noise (wideband, 110 dB, 30 min), TMO 200 mg/kg/day in drinking water three weeks before noise, all seven frequencies, FIG. 1B", "result": "significantly lower"},
      {"measurement": "permanent threshold shift (PTS) vs control", "setting": "[4]; 14 days after noise (wideband, 110 dB, 30 min), TMO 200 mg/kg/day in drinking water three weeks before noise, all seven frequencies, FIG. 1C, listed as TMO", "result": "significantly lower"},
      {"measurement": "ABR threshold before the noise exposure vs control", "setting": "[4]; TMO 200 mg/kg body weight/day in drinking water, one week after TMO treatment, n=5, 8 month-old mice, FIG. 1A", "result": "no difference"},
      {"measurement": "ABR threshold shift at the apex region", "setting": "[4]; apex region (0 to 8 kHz), single treated mouse of the pair, control about 25 dB", "result": "no shift"},
      {"measurement": "protection from NIHL, PTS", "setting": "[4]; [5]", "result": "significant protection"},
      {"measurement": "protection from NIHL, TTS", "setting": "[4]; [5]", "result": "significant protection"},
      {"measurement": "ABR threshold shift after the noise exposure", "setting": "[4]; both male and female mice, prophylactic treatment", "result": "dramatically reduced"},
      {"measurement": "ABR threshold shift prevented, PTS", "setting": "[4]; [6]", "result": "~7.0", "unit": "dB"},
      {"measurement": "ABR threshold shift prevented, TTS", "setting": "[4]; [6]", "result": "about 5.0 dB"},
      {"measurement": "ABR threshold shift prevented, PTS", "setting": "[4]; [7]", "result": "~9.7", "unit": "dB"},
      {"measurement": "ABR threshold shift prevented, TTS", "setting": "[4]; [7]", "result": "about 4.3 dB"},
      {"measurement": "permanent ABR threshold shift among five frequencies tested", "setting": "[4]; single treated mouse (male, 3 months) of a selected pair, drug two weeks before noise, control mouse about 35 dB, FIG. 8", "result": 11, "unit": "dB"},
      {"measurement": "ABR threshold at 40 kHz before the noise exposure", "setting": "[4]; single treated mouse of the pair, same value in the control mouse", "result": 28, "unit": "dB"},
      {"measurement": "ABR threshold shift, TTS, vs control", "setting": "[2]; female mice (n=4), 24 h after noise, drug right after noise, FIG. 3B", "result": "no significant difference"},
      {"measurement": "ABR threshold shift, PTS, vs control", "setting": "[2]; female mice (n=4), two weeks after noise, drug right after noise, FIG. 3B", "result": "no statistical difference"},
      {"measurement": "protection from NIHL, TTS", "setting": "[2]; male mice (n=3), 3 months old, drug in drinking water right after noise, one-way ANOVA p<0.05, FIG. 3A", "result": "significant protection"},
      {"measurement": "ABR threshold shift, PTS, vs control", "setting": "[2]; male mice (n=3), two weeks after noise, drug right after noise, P<0.01", "result": "significantly less; also recorded: significant protection"},
      {"measurement": "less ABR threshold shift than controls, TTS", "setting": "[2]; male mice, 24 h after noise, drug in drinking water right after noise, across all five frequencies, P<0.05, FIG. 3A", "result": "about 10 dB"},
      {"measurement": "pre-exposure ABR thresholds (Pre-Noise-Only vs Pre-Noise-Drug)", "setting": "[2]; male or female mice, 3 months old, FIGS. 3A and 3B", "result": "no significant difference"}
    ]}
  ]
}
